In ChEMBL document CHEMBL1201862, “PubChem BioAssay data set” (2004):
Calls of active or inactive are those of the source.

Assays:
MDCK [1] = test: MDCK cell cytotoxicity, dose response, cytotoxicity control (AID 540296); assay type: functional; conditions: Canis lupus familiaris
Vero = test: Vero E6 cell cytotoxicity, dose response, cytotoxicity control (AID 540298); assay type: functional; conditions: Chlorocebus sabaeus
Nonstructural protein 1 = Nonstructural protein 1 (Influenza A virus, UniProt Q194T2); assay type: functional, Influenza A virus (A/California/07/2009(H1N1))
[2] = target: RNA-editing ligase 1, mitochondrial (Trypanosoma brucei brucei, UniProt P86926); test: TbREL1 ligase inhibitors, dose response, biochemical, fluorescence, Trypanosoma brucei (AID 1117295); assay type: functional
MDCK [3] = test: antiviral activity against H1N1 influenza, dose response, cell-based, strain KY180 (AID 540254); assay type: functional; conditions: Canis lupus familiaris
[4] = target: T1, Small ubiquitin-related modifier 1 (Homo sapiens, UniProt P63165); test: inhibitors of SUMO1 partner interactions, dose response, biochemical, FRET (AID 624383); assay type: functional; conditions: read-out: IC50_Mean
[5] = target: DNA dC->dU-editing enzyme APOBEC-3G (Homo sapiens, UniProt Q9HC16); test: Dose Response confirmation of small molecule APOBEC3G DNA Deaminase Inhibitors via a fluorescence-based single-stranded DNA deaminase assay. [Related pubchem assays (depositor defined):AID493012, AID493028]; assay type: functional
[6] = target: Induced myeloid leukemia cell differentiation protein Mcl-1 (Homo sapiens, UniProt Q07820); assay type: functional
[7] = target: T2, Carboxy-terminal domain RNA polymerase II polypeptide A small phosphatase 1 (Homo sapiens, UniProt Q9GZU7); test: inhibitors of CTDSP1, concentration-response testing, biochemical assay, absorbance-based, actives from ultra-high-throughput screening (AID 540297); assay type: functional
T2 sequence (Q9GZU7 whole entry): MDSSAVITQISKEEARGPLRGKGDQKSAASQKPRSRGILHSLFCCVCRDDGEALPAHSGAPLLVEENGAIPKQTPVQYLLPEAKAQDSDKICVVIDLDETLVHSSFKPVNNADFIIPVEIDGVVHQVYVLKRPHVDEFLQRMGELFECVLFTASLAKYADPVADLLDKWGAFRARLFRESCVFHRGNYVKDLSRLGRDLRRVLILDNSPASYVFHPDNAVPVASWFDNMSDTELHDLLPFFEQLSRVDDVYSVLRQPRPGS

[8] = target: T3, Apoptotic protease-activating factor 1 (Homo sapiens, UniProt O14727); test: activation of Apaf-1 mediated apoptosis – fluorescent, uHTS hits, dose response (AID 588554); assay type: functional
T3 sequence (O14727 whole entry): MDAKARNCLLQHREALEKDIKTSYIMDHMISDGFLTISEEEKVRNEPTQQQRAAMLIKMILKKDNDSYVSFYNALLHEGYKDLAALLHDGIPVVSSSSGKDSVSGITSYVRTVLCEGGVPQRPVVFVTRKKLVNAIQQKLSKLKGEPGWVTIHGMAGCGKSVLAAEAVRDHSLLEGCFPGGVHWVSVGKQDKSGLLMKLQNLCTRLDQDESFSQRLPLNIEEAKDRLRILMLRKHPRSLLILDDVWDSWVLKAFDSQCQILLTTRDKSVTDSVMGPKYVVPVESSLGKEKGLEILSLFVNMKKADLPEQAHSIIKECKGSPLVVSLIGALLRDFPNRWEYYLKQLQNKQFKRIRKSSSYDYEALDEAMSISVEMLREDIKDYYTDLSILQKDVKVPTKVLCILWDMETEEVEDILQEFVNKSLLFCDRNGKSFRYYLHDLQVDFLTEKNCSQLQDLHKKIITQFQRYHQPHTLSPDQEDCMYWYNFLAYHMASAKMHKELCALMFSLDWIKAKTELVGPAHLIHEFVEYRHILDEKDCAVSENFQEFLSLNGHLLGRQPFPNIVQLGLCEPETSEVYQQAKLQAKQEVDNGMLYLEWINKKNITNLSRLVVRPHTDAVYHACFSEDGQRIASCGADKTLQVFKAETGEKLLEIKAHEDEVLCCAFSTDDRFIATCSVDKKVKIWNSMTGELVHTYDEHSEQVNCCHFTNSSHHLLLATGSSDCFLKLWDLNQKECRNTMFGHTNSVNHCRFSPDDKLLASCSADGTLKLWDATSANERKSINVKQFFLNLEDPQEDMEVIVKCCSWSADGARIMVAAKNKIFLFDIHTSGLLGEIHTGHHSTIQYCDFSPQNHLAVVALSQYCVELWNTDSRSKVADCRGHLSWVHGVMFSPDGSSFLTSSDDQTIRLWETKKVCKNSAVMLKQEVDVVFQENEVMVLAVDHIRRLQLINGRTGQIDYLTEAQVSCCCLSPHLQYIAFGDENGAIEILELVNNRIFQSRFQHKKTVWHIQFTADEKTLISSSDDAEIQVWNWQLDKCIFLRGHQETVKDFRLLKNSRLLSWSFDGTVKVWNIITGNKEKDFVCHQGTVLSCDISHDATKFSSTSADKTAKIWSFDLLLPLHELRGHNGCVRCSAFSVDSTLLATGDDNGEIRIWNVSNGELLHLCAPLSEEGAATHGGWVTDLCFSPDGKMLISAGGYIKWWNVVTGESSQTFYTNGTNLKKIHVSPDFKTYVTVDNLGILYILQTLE

[9] = target: T1, Small ubiquitin-related modifier 1; test: inhibitors of SUMO1 peptide binding, dose response, biochemical, fluorescence polarization, uHTS hits (AID 624382); assay type: functional; conditions: read-out: IC50_Mean
[10] = target: Beta-adrenergic receptor kinase 1 (Homo sapiens, UniProt P25098); test: aptamer displacement from bead-bound GRK2 – biochemical, cherry pick 1, bead flow cytometry, dose response (AID 504500)
[11] = target: DNA dC->dU-editing enzyme APOBEC-3A (Homo sapiens, UniProt P31941); test: APOBEC3A DNA deaminase inhibitors, dose response, biochemical (AID 504722); assay type: functional
[12] = Luminescence Cell-Based Dose Response Follow up to Identify Inhibitors of Platelet Dense Granule Release. [Related pubchem assays (depositor defined):AID1663, AID1678, AID2398]; assay type: functional
[13] = blockers of SFLLRN-triggered platelet ATP secretion – cell-based, human platelets, luminescence, dry powder, dose response (AID 493100); assay type: functional
[14] = target: T4, Sentrin-specific protease 7 (Homo sapiens, UniProt Q9BQF6); test: SENP7 protease inhibitors, SAR follow-up, biochemical, luminescence (AID 504497); assay type: functional
T4 sequence (Q9BQF6 whole entry): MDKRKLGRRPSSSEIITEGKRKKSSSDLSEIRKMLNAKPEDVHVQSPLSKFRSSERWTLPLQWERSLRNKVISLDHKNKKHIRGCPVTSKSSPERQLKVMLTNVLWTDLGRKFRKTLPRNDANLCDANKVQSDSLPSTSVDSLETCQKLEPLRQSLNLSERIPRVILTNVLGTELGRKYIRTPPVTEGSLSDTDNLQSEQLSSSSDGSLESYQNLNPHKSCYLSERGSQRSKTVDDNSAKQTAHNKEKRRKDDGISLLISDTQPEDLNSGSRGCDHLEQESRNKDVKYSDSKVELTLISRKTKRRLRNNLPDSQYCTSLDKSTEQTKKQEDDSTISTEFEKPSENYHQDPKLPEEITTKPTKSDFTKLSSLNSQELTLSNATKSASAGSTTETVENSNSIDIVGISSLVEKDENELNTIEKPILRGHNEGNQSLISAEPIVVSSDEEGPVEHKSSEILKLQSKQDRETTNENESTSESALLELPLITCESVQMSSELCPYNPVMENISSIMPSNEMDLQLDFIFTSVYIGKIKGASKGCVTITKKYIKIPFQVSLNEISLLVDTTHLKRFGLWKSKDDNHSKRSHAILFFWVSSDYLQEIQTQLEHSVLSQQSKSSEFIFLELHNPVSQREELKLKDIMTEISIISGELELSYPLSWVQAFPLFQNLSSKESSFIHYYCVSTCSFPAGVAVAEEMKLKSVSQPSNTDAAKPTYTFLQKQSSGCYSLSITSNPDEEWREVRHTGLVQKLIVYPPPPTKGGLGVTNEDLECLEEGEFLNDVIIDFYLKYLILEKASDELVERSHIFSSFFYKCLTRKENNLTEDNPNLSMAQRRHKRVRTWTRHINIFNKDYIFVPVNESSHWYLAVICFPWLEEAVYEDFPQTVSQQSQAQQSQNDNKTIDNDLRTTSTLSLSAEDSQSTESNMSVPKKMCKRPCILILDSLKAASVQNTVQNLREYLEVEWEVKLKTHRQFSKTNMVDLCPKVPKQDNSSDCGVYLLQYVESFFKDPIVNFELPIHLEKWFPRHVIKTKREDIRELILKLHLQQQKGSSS

Caspase-3 [15] = target: T5, Caspase-3 (Homo sapiens, UniProt P42574); test: SAR Analysis of small molecule inhibitors of Sentrin-specific proteases (SENPs) using a Caspase-3 Selectivity assay. [Related pubchem assays (depositor defined):AID2540, AID2599, AID434973, AID489001]; assay type: functional
T5 sequence (P42574 whole entry): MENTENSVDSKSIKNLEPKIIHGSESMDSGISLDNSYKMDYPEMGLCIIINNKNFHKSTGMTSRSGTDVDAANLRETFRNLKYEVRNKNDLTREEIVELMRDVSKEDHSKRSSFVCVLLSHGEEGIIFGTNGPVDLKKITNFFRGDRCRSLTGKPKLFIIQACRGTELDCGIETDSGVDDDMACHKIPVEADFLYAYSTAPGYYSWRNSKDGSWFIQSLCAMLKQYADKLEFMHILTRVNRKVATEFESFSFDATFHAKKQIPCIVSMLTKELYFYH

[16] = target: T6, Sentrin-specific protease 6 (Homo sapiens, UniProt Q9GZR1); test: SENP6 protease inhibitors, SAR follow-up, biochemical, luminescence, set 2 (AID 588598); assay type: functional
T6 sequence (Q9GZR1 whole entry): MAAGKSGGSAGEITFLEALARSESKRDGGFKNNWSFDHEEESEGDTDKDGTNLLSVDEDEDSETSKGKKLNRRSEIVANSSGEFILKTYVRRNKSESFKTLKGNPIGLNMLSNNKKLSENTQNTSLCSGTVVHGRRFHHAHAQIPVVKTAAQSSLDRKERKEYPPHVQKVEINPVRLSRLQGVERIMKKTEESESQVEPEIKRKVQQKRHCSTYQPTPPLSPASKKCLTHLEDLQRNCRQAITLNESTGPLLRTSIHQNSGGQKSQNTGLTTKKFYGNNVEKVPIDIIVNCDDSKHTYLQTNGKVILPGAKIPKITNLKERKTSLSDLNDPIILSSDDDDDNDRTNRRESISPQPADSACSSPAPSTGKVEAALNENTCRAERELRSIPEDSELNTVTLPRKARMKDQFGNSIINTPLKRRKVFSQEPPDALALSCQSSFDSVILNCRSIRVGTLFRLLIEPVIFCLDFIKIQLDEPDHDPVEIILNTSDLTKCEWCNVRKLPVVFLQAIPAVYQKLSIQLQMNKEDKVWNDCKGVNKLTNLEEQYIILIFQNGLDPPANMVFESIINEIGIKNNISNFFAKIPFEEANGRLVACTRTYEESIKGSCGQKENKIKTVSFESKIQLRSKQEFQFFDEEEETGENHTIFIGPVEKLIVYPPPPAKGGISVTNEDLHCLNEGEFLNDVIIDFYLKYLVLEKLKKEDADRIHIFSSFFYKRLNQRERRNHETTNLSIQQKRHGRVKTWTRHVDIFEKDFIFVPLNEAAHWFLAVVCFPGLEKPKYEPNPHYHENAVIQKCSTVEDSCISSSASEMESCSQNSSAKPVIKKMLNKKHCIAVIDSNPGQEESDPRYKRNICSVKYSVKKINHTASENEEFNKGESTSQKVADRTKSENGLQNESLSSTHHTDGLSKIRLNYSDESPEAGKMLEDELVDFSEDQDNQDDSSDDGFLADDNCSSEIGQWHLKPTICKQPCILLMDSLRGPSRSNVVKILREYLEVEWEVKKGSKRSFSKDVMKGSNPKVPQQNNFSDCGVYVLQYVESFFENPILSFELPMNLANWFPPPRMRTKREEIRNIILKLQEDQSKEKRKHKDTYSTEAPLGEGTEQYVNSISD

[17] = target: T7, Sentrin-specific protease 8 (Homo sapiens, UniProt Q96LD8); test: SENP8 protease inhibitors, SAR follow-up, biochemical, luminescence (AID 504501); assay type: functional
T7 sequence (Q96LD8 whole entry): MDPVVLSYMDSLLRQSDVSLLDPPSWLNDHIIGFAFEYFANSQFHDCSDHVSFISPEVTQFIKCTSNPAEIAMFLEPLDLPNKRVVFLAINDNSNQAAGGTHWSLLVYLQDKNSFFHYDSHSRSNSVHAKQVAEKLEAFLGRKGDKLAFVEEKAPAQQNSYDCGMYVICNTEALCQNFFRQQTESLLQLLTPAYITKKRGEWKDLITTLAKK

Caspase-3 [18] = target: T5, Caspase-3; test: caspase-3 inhibitors as off-family protease, SAR follow-up, selectivity assay for SENP protease inhibitor project, biochemical, luminescence, set 2 (AID 588599); assay type: functional
[19] = target: T7, Sentrin-specific protease 8; test: SENP8 protease inhibitors, SAR follow-up, biochemical, luminescence, set 2 (AID 588601); assay type: functional
[20] = target: T4, Sentrin-specific protease 7; test: SENP7 protease inhibitors, SAR follow-up, biochemical, luminescence, set 2 (AID 588600); assay type: functional
[21] = target: T6, Sentrin-specific protease 6; test: SAR Analysis of small molecule inhibitors of Sentrin-specific protease 6 (SENP6) using a Luminescent assay. [Related pubchem assays (depositor defined):AID2582, AID2599]; assay type: functional

T1 sequence (P63165 whole entry): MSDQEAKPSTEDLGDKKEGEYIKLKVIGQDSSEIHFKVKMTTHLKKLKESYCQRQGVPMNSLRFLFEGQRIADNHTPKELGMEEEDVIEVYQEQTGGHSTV
Chain of Beta-adrenergic receptor kinase 1 (P25098 whole entry): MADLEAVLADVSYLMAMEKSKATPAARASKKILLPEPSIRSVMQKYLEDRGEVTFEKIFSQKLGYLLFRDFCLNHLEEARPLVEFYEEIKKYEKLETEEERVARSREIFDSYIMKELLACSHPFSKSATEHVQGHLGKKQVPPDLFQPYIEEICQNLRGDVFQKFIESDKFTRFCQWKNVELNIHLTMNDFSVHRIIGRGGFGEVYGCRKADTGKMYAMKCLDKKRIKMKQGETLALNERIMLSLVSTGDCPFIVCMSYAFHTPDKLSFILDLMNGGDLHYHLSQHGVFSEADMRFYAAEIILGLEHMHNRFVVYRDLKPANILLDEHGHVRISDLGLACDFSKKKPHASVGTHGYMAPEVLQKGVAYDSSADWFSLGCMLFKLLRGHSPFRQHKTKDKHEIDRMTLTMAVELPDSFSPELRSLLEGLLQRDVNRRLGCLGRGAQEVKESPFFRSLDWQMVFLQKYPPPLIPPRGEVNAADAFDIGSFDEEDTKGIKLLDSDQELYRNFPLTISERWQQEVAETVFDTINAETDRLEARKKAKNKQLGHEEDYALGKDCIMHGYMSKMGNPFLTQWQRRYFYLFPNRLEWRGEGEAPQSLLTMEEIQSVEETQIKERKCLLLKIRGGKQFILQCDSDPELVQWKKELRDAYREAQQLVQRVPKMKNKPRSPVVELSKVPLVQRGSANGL
Chain of DNA dC->dU-editing enzyme APOBEC-3A (P31941 whole entry): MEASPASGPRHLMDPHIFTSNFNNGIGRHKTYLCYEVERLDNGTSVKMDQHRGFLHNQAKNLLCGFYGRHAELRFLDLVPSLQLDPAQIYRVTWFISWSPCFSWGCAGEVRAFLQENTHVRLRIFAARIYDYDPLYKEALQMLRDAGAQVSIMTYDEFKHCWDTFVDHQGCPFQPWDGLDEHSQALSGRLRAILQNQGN
Chain of DNA dC->dU-editing enzyme APOBEC-3G (Q9HC16 whole entry): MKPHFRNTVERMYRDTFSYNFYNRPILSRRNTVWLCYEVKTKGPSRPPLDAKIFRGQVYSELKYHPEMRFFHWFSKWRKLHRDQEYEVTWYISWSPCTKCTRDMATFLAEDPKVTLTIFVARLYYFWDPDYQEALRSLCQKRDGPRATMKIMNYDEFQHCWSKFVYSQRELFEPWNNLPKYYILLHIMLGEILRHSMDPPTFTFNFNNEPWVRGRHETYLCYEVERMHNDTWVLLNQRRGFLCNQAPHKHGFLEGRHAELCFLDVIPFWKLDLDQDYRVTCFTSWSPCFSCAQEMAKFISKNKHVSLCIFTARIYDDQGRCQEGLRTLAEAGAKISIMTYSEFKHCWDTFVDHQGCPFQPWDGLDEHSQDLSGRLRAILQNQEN
Chain of Nonstructural protein 1 (Q194T2 whole entry): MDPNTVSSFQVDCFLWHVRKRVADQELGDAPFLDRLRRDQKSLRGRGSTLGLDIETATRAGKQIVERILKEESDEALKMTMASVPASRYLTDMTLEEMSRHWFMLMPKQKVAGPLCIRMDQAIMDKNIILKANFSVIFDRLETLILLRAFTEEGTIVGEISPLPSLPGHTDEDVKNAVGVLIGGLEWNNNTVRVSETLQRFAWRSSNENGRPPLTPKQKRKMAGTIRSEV
Chain of Induced myeloid leukemia cell differentiation protein Mcl-1 (Q07820 whole entry, the tested form may be a part): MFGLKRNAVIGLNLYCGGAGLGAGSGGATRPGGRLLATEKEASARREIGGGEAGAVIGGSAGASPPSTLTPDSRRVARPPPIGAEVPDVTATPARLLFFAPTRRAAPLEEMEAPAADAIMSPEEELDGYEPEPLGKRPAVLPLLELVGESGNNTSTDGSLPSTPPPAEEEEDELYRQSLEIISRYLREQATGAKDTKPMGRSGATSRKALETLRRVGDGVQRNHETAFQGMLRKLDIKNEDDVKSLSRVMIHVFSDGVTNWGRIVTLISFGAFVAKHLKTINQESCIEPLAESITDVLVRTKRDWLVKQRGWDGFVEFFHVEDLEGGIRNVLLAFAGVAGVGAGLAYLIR
Chain of RNA-editing ligase 1, mitochondrial (P86926 whole entry): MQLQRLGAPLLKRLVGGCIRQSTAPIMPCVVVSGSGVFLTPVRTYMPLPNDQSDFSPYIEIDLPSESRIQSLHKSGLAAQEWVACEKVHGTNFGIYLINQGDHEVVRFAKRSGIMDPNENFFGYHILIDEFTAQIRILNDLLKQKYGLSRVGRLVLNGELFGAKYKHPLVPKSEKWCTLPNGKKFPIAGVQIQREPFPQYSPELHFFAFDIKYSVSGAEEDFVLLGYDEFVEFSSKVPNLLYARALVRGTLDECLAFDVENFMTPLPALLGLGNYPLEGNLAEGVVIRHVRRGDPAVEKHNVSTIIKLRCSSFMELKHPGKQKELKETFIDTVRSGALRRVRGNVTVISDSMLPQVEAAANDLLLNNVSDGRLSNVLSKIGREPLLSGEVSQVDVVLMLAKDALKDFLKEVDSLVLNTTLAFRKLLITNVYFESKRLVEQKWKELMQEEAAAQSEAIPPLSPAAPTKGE

## CCN(c1ccccc1)S(=O)(=O)c1ccc(C(=O)N(CCCN(C)C)c2nc3c(C)cccc3s2)cc1
MDCK [1]
  CC50: 10.8 µM (active)
Vero
  CC50: 16 µM (active)
Nonstructural protein 1
  IC50: > 100 µM (active)
[2]
  IC50: > 96.6 µM (inactive)
MDCK [3]
  IC50: > 100 µM (active)

## C=C(C)C(=O)Nc1cccc(C2=NOC3(C2)C[C@H](C(N)=O)N(C(=O)/C=C/C)C3)c1 (stereo partly drawn)
[4]
  IC50: 1.93 µM (active)
[5]
  IC50: 6.14 µM (active)
[6]
  IC50: 3.48 µM (active)
[7]
  IC50: 1.61 µM (active)
[8]
  EC50: 2.71 µM (active)
[9]
  IC50: > 66.6 µM (inactive)
[10]
  EC50: 21.3 µM (inactive)
[11]
  IC50: > 100 µM (inactive)

## CCCCC(=O)N/N=C(\C)c1ccc(NC(=O)C(F)(F)F)cc1
[12]
  EC50: 5.49 µM (active)
[13]
  AC50: 41.3 µM (active)

## COc1cc(/C=C/c2noc(-c3ccccc3O)n2)ccc1OCC(=O)O
[14]
  IC50: 18 µM (active)
Caspase-3 [15]
  IC50: 54 µM (active)
[16]
  IC50: 21.9 µM (active)
[17]
  IC50: > 99 µM (inactive)
Caspase-3 [18]
  IC50: 28.2 µM (active)
[19]
  IC50: 46.3 µM (active)
[20]
  IC50: 72.3 µM (active)
[21]
  IC50: > 99 µM (inactive)
